Tests used:
[1] = system: Plasmodium falciparum; test: Antimalarial activity against Plasmodium falciparum 3D7 infected in human O+ erythrocytes after 72 hrs by SYBR green fluorescence-based method; type: functional, cell-based
[2] = system: Plasmodium falciparum; test: Antimalarial activity against chloroquine-resistant Plasmodium falciparum Dd2 infected in human O+ erythrocytes after 72 hrs by SYBR green fluorescence-based method; type: functional, cell-based
[3] = system: Plasmodium falciparum; test: Antimalarial activity against chloroquine-resistant Plasmodium falciparum FCR-3 ATCC 30932 infected in human RBC after 72 hrs by Geimsa staining based microscopic method; type: functional; conditions: FCR-3/Gambia ATCC 30932, 72 h
[4] = system: Plasmodium falciparum; test: Antimalarial activity against chloroquine-resistant Plasmodium falciparum W2 infected in human RBC after 72 hrs; type: functional; conditions: W2, 72 h
[5] = Plasmodium falciparum, 3D7, 72 h
[6] = Plasmodium falciparum, Dd2, 72 h

| Compound | IC50 [1, 5] | IC50 [2, 6] | other results |
| --- | --- | --- | --- |
| CC(C)(Cl)[C@@H]1CC[C@](C)([C@H]2CC[C@](C)(C#N)[C@H]3CC[C@@](C)(O)[C@H](C#N)[C@@H]32)O1 | 8.4 nM | 4.6 nM |  |
| CC(C)(O)C[C@@H]1[C@@]2(C)CCCC(C)(C)[C@@H]2CC[C@]1(C)C#N | 244 nM | 416 nM |  |
| CC(C)[C@H]1CC[C@@](C)(C#N)[C@H]2CC[C@@](C)(C#N)[C@H](O)[C@H]12 | 1150 nM | 958 nM |  |
| CC1=C[C@H]2[C@H](CC1)[C@@](C)(C#N)CC[C@@H]2[C@@]1(C)CC[C@](C#N)(C(C)C)O1 | 175 nM | 123 nM |  |
| CC1(C)O[C@@](C)([C@H]2CC[C@](C)(C#N)[C@H]3CC[C@@](C)(O)[C@H](C#N)[C@@H]32)CC[C@@H]1Cl |  |  | IC50 [3]: 1.2 nM |
| CC(C)[C@H]1CC[C@@](C)(C#N)[C@H]2CC[C@@](C)(O)[C@H](C#N)[C@H]12 | 2.9 nM | 31 nM |  |
| CC(C)(C#N)C[C@@H]1[C@@]2(C)CCCC(C)(C)[C@@H]2CC[C@]1(C)C#N | 1.9 nM | 1.6 nM |  |
| CC(C)[C@H]1CC[C@](C)(C#N)[C@H]2CC[C@@](C)(C#N)[C@H](O)[C@H]12 | 15 nM |  | IC50 [2]: 17 nM |
| CC(C)[C@H]1CC[C@](C)(C#N)[C@H]2CC[C@@](C)(O)[C@H](C#N)[C@H]12 | 12 nM | 16 nM |  |
| CC1=C[C@@]2(O)[C@@H](CC1)[C@@](C)(C#N)CC[C@@H]2[C@@]1(C)CC[C@@H](C(C)(C)C#N)O1 |  |  | IC50 [3]: 80 nM |
| C[C@@H]1C[C@@H]2C[C@H](C)[C@H]3CC[C@](C)(C#N)[C@H]4CC[C@@H]([C@@H]2[C@H]34)[C@]1(C)C#N |  | 1.6 nM | IC50 [4]: 13 nM |
| CC1=C[C@@H]2[C@@H](C(C)C)CC[C@@](C)(C#N)[C@@H]2CC1 (racemic) | 180 nM | 45 nM |  |
| CC1=C[C@@H]2[C@@H](C(C)C)CC[C@](C)(C#N)[C@H]2CC1 (racemic) | 705 nM | 247 nM |  |
| CC(C)[C@H]1CC[C@](C)(C#N)[C@H]2CC[C@@](C)(C#N)[C@H](O)[C@H]12 (racemic) |  |  | IC50 [1]: 27 nM; IC50 [2]: 46 nM |
| C[C@]1(C#N)CC[C@H](CCO)[C@H]2[C@@H](C#N)[C@](C)(O)CC[C@@H]21 (racemic) | 302 nM | 205 nM |  |

Source: ChEMBL document CHEMBL4002646, “Antimalarial Properties of Simplified Kalihinol Analogues” (ACS Med Chem Lett, 2017)
